Test results: the supplement of paper PMC10307832

How the values were obtained:
Assay in all cases: relative viability (nuclei count vs DMSO), 5 days (fraction); higher = more cells survive
AGI-6780 = compound: O=C(Nc1cccc(C(F)(F)F)c1)Nc1cc(S(=O)(=O)NC2CC2)ccc1-c1ccsc1 [AGI-6780]
In short: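 Five library-drug doses spaced by √10 were pinned onto vehicle-anchored 1536-well plates of lung cancer cell lines that had been kept overnight at 37 °C. Cells went 5 days without medium change, then were fixed, permeabilised and Hoechst-stained together, imaged at 4× and counted by MetaXpress. Viability is the ratio of treated-well to vehicle-well nuclei, taken as a median over plates. Plates required control CV below 25% and at least one doubling.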

AGI-6780 + Tozasertib = compound: O=C(Nc1cccc(C(F)(F)F)c1)Nc1cc(S(=O)(=O)NC2CC2)ccc1-c1ccsc1 [AGI-6780] + Cc1cc(Nc2cc(N3CCN(C)CC3)nc(Sc3ccc(NC(=O)C4CC4)cc3)n2)n[nH]1 [Tozasertib] (partner 0.1 µM)
In short: (§1)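 Dosing by pin tool came one day after lung cancer cell lines were seeded in 1536-well plates, using either one drug or a fixed anchor-drug dose plus five library-drug doses (not always all listed) in √10 steps. After 5 days, nuclei were counted on 4× images. Relative viability is treated-well nuclei count divided by vehicle-well nuclei count, and values are medians of duplicate plates.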

AGI-6780 + Trametinib = compound: O=C(Nc1cccc(C(F)(F)F)c1)Nc1cc(S(=O)(=O)NC2CC2)ccc1-c1ccsc1 [AGI-6780] + CC(=O)Nc1cccc(-n2c(=O)n(C3CC3)c(=O)c3c(Nc4ccc(I)cc4F)n(C)c(=O)c(C)c32)c1 [Trametinib] (partner 0.02 µM)
In short: as §1

AGI-6780 + AZD7762 = compound: O=C(Nc1cccc(C(F)(F)F)c1)Nc1cc(S(=O)(=O)NC2CC2)ccc1-c1ccsc1 [AGI-6780] + NC(=O)Nc1cc(-c2cccc(F)c2)sc1C(=O)N[C@H]1CCCNC1 [AZD7762] (partner 0.2 µM)
In short: as §1

| Cell Line | relative viability (AGI-6780; 0.08 µM) | relative viability (AGI-6780; 0.253 µM) | relative viability (AGI-6780; 0.8 µM) | relative viability (AGI-6780; 2.53 µM) | relative viability (AGI-6780; 8 µM) | relative viability (AGI-6780 + Tozasertib; first compound 0.08 µM) | relative viability (AGI-6780 + Tozasertib; first compound 0.253 µM) | relative viability (AGI-6780 + Tozasertib; first compound 0.8 µM) | relative viability (AGI-6780 + Tozasertib; first compound 2.53 µM) | relative viability (AGI-6780 + Tozasertib; first compound 8 µM) | relative viability (AGI-6780 + Trametinib; first compound 0.08 µM) | relative viability (AGI-6780 + Trametinib; first compound 0.253 µM) | relative viability (AGI-6780 + Trametinib; first compound 0.8 µM) | relative viability (AGI-6780 + Trametinib; first compound 2.53 µM) | relative viability (AGI-6780 + Trametinib; first compound 8 µM) | relative viability (AGI-6780 + AZD7762; first compound 0.08 µM) | relative viability (AGI-6780 + AZD7762; first compound 0.253 µM) | relative viability (AGI-6780 + AZD7762; first compound 0.8 µM) | relative viability (AGI-6780 + AZD7762; first compound 2.53 µM) | relative viability (AGI-6780 + AZD7762; first compound 8 µM) |
| --- | --- | --- | --- | --- | --- | --- | --- | --- | --- | --- | --- | --- | --- | --- | --- | --- | --- | --- | --- | --- |
| NCI-H23 | 0.927 | 1.11 | 0.9 | 0.796 | 1.16 | 0.347 | 0.365 | 0.35 | 0.379 | 0.343 | 0.394 | 0.39 | 0.375 | 0.272 | 0.494 | 0.259 | 0.24 | 0.23 | 0.294 | 0.23 |
| PC-14 | 1.02 | 1.01 | 1.05 | 1.02 | 1.04 | 0.57 | 0.583 | 0.658 | 0.582 | 0.569 | 0.802 | 0.764 | 1.02 | 0.731 | 0.752 | 0.355 | 0.33 | 0.453 | 0.455 | 0.397 |
| NCI-H727 | 0.988 | 0.902 | 1.26 | 0.885 | 0.987 | 0.583 | 0.568 | 0.669 | 0.722 | 0.681 | 0.415 | 0.396 | 0.372 | 0.365 | 0.38 | 0.45 | 0.536 | 0.65 | 0.589 | 0.749 |
| NCI-H647 | 0.873 | 0.979 | 1.01 | 0.909 | 1.07 | 0.299 | 0.302 | 0.37 | 0.181 | 0.281 | 0.499 | 0.505 | 0.476 | 0.45 | 0.474 | 0.425 | 0.484 | 0.827 | 0.401 | 0.589 |
| EKVX | 0.986 | 1.03 | 0.938 | 0.799 | 0.969 | 0.349 | 0.39 | 0.412 | 0.335 | 0.366 | 0.32 | 0.383 | 0.392 | 0.386 | 0.312 | 0.675 | 0.728 | 0.806 | 0.681 | 0.641 |
| NCI-H838 | 0.984 | 0.996 | 0.995 | 0.83 | 0.957 | 0.321 | 0.244 | 0.295 | 0.276 | 0.224 | 0.505 | 0.517 | 0.481 | 0.474 | 0.531 | 0.988 | 0.903 | 0.919 | 0.932 | 0.909 |
| NCI-H2009 | 0.968 | 1.03 | 0.94 | 1.1 | 1.05 | 0.605 | 0.725 | 0.845 | 0.701 | 0.683 | 0.264 | 0.272 | 0.243 | 0.202 | 0.225 |  |  |  |  |  |
| NCI-H1563 | 0.999 | 1.02 | 0.949 | 0.87 | 0.98 |  |  |  |  |  |  |  |  |  |  |  |  |  |  |  |
| UMC-11 | 0.95 | 0.955 | 1.2 |  | 1.13 | 0.197 | 0.198 | 0.206 |  | 0.192 | 0.657 | 0.708 | 0.812 |  | 0.902 |  |  |  |  |  |
| Calu-6 | 1.03 | 1.01 | 1.07 | 0.993 | 1.03 |  |  |  |  |  |  |  |  |  |  |  |  |  |  |  |
| SW 1573 | 1.03 | 1.02 | 1.04 | 0.739 | 0.957 | 0.175 | 0.261 | 0.254 |  | 0.139 | 0.567 | 0.533 | 0.489 |  | 0.602 |  |  |  |  |  |
| NCI-H2023 | 0.969 | 0.978 | 1.03 | 0.882 | 1.03 | 0.329 | 0.48 | 0.358 | 0.212 | 0.25 | 0.691 | 0.527 | 0.497 | 0.5 | 0.526 |  |  |  |  |  |
| NCI-H2228 | 0.972 | 1.08 | 0.913 | 0.846 | 1.15 | 0.281 | 0.278 | 0.228 | 0.226 | 0.201 | 0.447 | 0.508 | 0.505 | 0.307 | 0.607 |  |  |  |  |  |
| NCI-H1299 | 1 | 0.98 | 0.955 | 1.04 | 1.01 |  |  |  |  |  |  |  |  |  |  |  |  |  |  |  |
| NCI-H1650 | 0.942 | 0.915 | 1.2 | 0.995 | 0.976 | 0.367 | 0.432 | 0.442 | 0.381 | 0.293 | 0.559 | 0.555 | 0.653 | 0.623 | 0.757 |  |  |  |  |  |
| IA-LM | 0.921 | 0.954 | 1.15 | 1.02 | 1.04 |  |  |  |  |  |  |  |  |  |  |  |  |  |  |  |
| SK-MES-1 | 1.04 | 1.03 | 0.99 | 0.958 | 0.99 | 1.02 | 0.961 | 1 | 0.88 | 0.747 | 0.549 | 0.577 | 0.509 | 0.532 | 0.493 |  |  |  |  |  |
| NCI-H1703 | 0.949 | 0.84 | 1.02 | 0.823 | 0.807 |  |  |  |  |  |  |  |  |  |  | 0.14 | 0.139 | 0.0936 | 0.112 | 0.133 |
| ABC-1 | 0.799 | 1.06 | 1.08 | 0.851 | 0.901 | 0.186 | 0.212 | 0.17 | 0.206 | 0.167 |  |  |  |  |  | 0.774 | 0.967 | 0.891 |  | 1.08 |
| NCI-H661 | 1 | 1 | 1.08 | 0.876 | 0.947 | 0.367 | 0.36 | 0.357 | 0.345 | 0.354 | 0.671 | 0.61 | 0.558 | 0.542 | 0.62 |  |  |  |  |  |
| COR-L23 | 1.05 | 1.12 | 0.949 | 1.06 | 1.01 | 0.224 | 0.216 | 0.206 | 0.213 | 0.178 | 0.601 | 0.536 | 0.529 | 0.379 | 0.568 |  |  |  |  |  |
| COR-L 105 | 0.985 | 0.943 | 1 | 0.881 | 1.02 | 0.402 | 0.357 | 0.388 | 0.336 | 0.441 | 0.465 | 0.576 | 0.464 | 0.397 | 0.351 |  |  |  |  |  |
